Reference: patent publication US8501446B2 (Vertex Pharmaceuticals Incorporated, priority 2004, dated 2013)

Key:
Type in all cases: biochemical
[1] = molecular target: T1, full length Aurora-A (AA 1-403) (Homo sapiens, UniProt O14965); assay: Aurora-A inhibition assay, standard coupled enzyme system; settings: average Ki if more than one value determined
T1 construct: full length Aurora-A (AA 1-403)
T1 sequence (O14965 1-403): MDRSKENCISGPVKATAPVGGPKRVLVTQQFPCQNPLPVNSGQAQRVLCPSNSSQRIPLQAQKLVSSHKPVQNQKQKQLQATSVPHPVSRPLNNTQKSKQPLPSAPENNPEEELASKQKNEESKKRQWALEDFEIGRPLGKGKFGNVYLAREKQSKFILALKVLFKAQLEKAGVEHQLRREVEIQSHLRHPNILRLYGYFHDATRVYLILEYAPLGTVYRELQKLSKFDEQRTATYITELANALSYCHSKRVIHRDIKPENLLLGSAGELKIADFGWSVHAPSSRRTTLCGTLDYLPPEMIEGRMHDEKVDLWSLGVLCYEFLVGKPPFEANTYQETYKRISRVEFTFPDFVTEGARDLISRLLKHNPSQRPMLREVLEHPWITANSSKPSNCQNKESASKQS

JAK3 = molecular target: T2, JAK3 (Homo sapiens, UniProt P52333); assay: JAK3 inhibition assay (standard radioactive enzyme assay); settings: average Ki if more than one value determined
T2 sequence (P52333 1-1124): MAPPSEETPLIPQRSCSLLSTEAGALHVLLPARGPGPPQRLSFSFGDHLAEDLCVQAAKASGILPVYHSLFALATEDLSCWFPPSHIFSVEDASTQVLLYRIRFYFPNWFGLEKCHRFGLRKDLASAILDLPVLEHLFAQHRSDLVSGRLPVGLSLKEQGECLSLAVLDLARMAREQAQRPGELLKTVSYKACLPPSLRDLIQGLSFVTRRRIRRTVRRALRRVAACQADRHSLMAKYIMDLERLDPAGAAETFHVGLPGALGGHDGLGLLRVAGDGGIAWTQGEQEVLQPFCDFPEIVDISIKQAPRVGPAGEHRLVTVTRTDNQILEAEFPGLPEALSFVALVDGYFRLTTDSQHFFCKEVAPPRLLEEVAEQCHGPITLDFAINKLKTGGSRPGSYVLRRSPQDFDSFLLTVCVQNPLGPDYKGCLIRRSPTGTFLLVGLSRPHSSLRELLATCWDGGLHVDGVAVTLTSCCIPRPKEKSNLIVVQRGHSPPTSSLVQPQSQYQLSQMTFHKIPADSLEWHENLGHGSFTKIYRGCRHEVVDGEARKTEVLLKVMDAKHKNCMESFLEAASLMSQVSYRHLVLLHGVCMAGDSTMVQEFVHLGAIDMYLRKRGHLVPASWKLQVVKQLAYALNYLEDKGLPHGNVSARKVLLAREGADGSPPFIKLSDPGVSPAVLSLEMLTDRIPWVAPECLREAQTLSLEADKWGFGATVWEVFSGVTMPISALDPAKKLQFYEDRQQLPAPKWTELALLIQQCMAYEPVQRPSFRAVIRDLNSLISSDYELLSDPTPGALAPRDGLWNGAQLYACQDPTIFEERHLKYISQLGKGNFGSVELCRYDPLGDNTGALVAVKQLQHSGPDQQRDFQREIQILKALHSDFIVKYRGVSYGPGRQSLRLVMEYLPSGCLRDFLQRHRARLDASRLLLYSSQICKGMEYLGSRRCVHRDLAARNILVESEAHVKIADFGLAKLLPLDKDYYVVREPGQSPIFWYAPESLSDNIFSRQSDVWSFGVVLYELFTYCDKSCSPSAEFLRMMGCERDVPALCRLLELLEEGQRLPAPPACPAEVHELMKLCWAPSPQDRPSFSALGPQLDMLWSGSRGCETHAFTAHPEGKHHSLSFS
Protocol: (§1) Compounds were screened for their ability to inhibit JAK3 using a standard radioactive enzyme assay. 1.5 μL/well of a DMSO stock containing serial dilutions of a compound of the present invention (concentrations ranging from 667 μM to 46 nM) was placed in a 96 well polycarbonate plate. 50 μL per well of kinase buffer (100 mM HEPES (pH 7.4), 10 mM MgCl2, 25 mM NaCl, 1 mM DTT, and 0.01% bovine serum albumin (BSA)) containing 2 μM poly(Glu)4Tyr and 10 μM ATP was also added to the plate. To initiate the reaction, 50 μL kinase buffer containing 2 nM JAK3 enzyme was added. Final ATP concentration was 5 μM [γ-^33P] ATP (200 μCi ^33P ATP/μmol ATP (Perkin Elmer, Cambridge, Mass.). After 20 minutes at room temperature (25° C.), the reaction was stopped by adding 50 μL 20% trichloroacetic acid (TCA)/0.4 mM ATP to each well. The entire content of each well was then transferred to a 96 well glass fiber filter plate using a TomTek Cell Harvester. After washing, 60 μL scintillation fluid was added and ^33P incorporation detected using a Perkin Elmer TopCount. After removing mean background values for all of the data points the data was fit using Prism software to obtain a Ki(app). Inhibition of JAK2 was measured as above except that final poly(Glu)4Tyr concentration was 15 μM and final ATP concentration was 12 μM.

JAK2 = JAK2 (Homo sapiens, UniProt O60674); assay: JAK2 inhibition assay (radioactive enzyme assay, as for JAK3); settings: average Ki if more than one value determined
Protocol: as §1

ROCK I (AA 6-553) = molecular target: T3, ROCK I (AA 6-553) (Homo sapiens, UniProt Q13464); assay: ROCK inhibition assay, standard coupled enzyme system ("Enzyme"); settings: enzyme-linked assay
T3 construct: ROCK I (AA 6-553)
In short: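 ROCK I (AA 6-553) at 45 nM and 30 °C with 45 μM ATP and 200 μM peptide, in 100 mM HEPES pH 7.5, 10 mM MgCl2, 25 mM NaCl, 2 mM DTT, 1.5% DMSO. ADP output read by a PK/LDH coupled system: 2.5 mM PEP, 350 μM NADH, 30 μg/ml PK, 10 μg/ml LDH.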

T3 sequence (Q13464 6-553, species assumed): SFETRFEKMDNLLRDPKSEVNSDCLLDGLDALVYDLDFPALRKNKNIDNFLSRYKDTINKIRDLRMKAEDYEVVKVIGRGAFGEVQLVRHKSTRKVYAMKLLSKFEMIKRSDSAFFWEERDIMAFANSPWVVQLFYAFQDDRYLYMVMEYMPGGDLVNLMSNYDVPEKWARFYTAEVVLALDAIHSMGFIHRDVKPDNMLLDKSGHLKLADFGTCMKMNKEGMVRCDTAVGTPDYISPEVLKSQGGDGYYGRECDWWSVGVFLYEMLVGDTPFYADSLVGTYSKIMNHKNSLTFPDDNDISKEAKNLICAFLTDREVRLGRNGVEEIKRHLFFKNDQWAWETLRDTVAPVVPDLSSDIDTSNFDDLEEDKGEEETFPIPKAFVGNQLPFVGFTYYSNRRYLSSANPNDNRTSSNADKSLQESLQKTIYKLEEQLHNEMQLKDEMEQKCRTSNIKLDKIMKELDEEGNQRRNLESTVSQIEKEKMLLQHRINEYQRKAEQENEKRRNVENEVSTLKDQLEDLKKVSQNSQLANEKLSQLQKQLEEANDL
Chain of JAK2 (O60674 whole entry, species assumed): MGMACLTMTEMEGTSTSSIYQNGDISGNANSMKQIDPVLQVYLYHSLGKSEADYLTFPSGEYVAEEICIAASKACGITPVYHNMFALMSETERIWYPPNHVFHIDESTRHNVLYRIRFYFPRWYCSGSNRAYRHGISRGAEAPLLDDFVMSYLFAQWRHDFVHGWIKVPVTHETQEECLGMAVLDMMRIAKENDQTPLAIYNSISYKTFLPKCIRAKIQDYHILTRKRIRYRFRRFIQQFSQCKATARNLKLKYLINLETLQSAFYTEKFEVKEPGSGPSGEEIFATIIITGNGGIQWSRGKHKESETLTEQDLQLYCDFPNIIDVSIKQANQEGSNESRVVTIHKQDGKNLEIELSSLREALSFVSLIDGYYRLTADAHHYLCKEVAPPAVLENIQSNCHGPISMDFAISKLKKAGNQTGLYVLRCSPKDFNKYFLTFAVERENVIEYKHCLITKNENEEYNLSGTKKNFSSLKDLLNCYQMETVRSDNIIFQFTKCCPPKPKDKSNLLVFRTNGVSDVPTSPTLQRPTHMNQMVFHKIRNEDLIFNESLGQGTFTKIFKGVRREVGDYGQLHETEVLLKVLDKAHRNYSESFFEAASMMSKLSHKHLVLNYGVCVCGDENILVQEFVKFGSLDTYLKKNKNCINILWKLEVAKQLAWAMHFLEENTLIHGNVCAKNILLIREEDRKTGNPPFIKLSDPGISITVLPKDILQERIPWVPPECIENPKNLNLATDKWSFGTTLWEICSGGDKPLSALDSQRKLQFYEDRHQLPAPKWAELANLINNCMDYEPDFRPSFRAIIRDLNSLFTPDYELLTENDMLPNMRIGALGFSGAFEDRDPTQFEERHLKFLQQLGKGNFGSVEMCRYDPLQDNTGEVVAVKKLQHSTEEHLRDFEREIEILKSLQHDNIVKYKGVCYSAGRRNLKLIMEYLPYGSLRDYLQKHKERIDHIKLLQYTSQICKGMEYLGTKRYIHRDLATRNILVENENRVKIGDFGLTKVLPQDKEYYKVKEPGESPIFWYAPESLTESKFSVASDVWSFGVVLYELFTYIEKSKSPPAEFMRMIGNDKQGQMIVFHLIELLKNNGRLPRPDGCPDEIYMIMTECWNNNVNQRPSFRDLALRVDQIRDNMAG

Structure (SMILES) | Ki [1] [nM] | Ki (JAK3) [nM] | Ki (JAK2) [nM] | Ki (ROCK I (AA 6-553)) [nM]
Cc1cnc2[nH]cc(-c3cccc(NCc4ccccc4)n3)c2c1 [Compound 39] | < 500 | < 500 | < 500 | 500 to 5000
CNC(=O)c1cnc2[nH]cc(-c3cccc(N4C[C@@H](C)N(C(C)=O)[C@@H](C)C4)n3)c2c1 [Compound 59] | 500 to 5000 | < 500 | < 500 | 500 to 5000
Clc1cnc2[nH]cc(-c3ccccc3)c2c1 [Compound 183] |  | < 500 | < 500 | 500 to 5000
CC(C)COC(=O)Nc1cccc(-c2c[nH]c3ncc(Cl)cc23)n1 [Compound 90] |  | < 500 | < 500 | 500 to 5000
C[C@@H](Nc1cccc(-c2c[nH]c3ncc(Cl)cc23)n1)C1CCCCC1 [Compound 129] |  | < 500 | 500 to 5000 | 500 to 5000
CC(C)[C@@H](CO)Nc1cccc(-c2c[nH]c3ncc(Cl)cc23)n1 [Compound 134] |  | < 500 | < 500 | 500 to 5000
CN1C2CCC1CN(c1cccc(-c3c[nH]c4ncc(Cl)cc34)n1)CC2 (centres unmarked) [Compound 82] |  | < 500 | < 500 | < 500
CC(=O)N1[C@H](C)CN(c2cccc(-c3c[nH]c4ncc(OCCN(C)C)cc34)n2)C[C@@H]1C [Compound 94] |  | 500 to 5000 | 500 to 5000 | 500 to 5000
Nc1cc(C(=O)O)cc(-c2c[nH]c3ncc(Cl)cc23)c1 [Compound 148] |  | < 500 | 500 to 5000 | < 500
Clc1cnc2[nH]cc(-c3ccc4ccccc4n3)c2c1 [Compound 195] |  | < 500 | 500 to 5000 | 500 to 5000
O=C(O)c1ccc(-c2c[nH]c3ncc(Cl)cc23)nc1 [Compound 106] |  | < 500 | < 500 | 500 to 5000
C=CC(=O)Nc1cnc2[nH]cc(-c3cccc(N4CCCN(C(C)=O)CC4)n3)c2c1 [Compound 139] |  | < 500 | < 500 | 500 to 5000
CC(=O)N1[C@H](C)CN(c2cccc(-c3c[nH]c4ncc(NC(=O)OCC(C)C)cc34)n2)C[C@@H]1C [Compound 63] |  | < 500 | < 500 | < 500
CCC(C)C(=O)Nc1cnc2[nH]cc(-c3cccc(N4C[C@@H](C)N(C(C)=O)[C@@H](C)C4)n3)c2c1 (some centres unmarked) [Compound 180] |  | < 500 | < 500 | 500 to 5000
Cc1cc(C(F)(F)F)cc(-c2c[nH]c3ncc(Cl)cc23)n1 [Compound 196] |  | 500 to 5000 | > 5000 | 500 to 5000
CC(=O)N1[C@H](C)CN(c2cccc(-c3c[nH]c4ncc(NC(=O)CN5CCNCC5)cc34)n2)C[C@@H]1C [Compound 115] |  | < 500 | < 500 | 500 to 5000
NC(=O)c1ccc(-c2c[nH]c3ncc(Cl)cc23)nc1 [Compound 107] |  | < 500 | < 500 | 500 to 5000
CC(=O)N1[C@H](C)CN(c2cccc(-c3c[nH]c4ncc(C(=O)N5CCNCC5)cc34)n2)C[C@@H]1C [Compound 56] | 500 to 5000 | 500 to 5000 | > 5000 | 

Structure (SMILES) | Ki [1] [nM] | Ki (JAK3) [nM] | Ki (JAK2) [nM] | Ki (ROCK I (AA 6-553)) [nM]
COc1cccc(-c2c[nH]c3ncc(Cl)cc23)n1 [Compound 201] |  | < 500 | < 500 | 500 to 5000
CCC(=O)Nc1cnc2[nH]cc(-c3cccc(N4CCCN(C(C)=O)CC4)n3)c2c1 [Compound 141] |  | < 500 | < 500 | 500 to 5000
CC(=O)N1[C@H](C)CN(c2cccc(-c3c[nH]c4ncc(C(=O)NCCCN5CCN(C)CC5)cc34)n2)C[C@@H]1C [Compound 109] |  | < 500 | < 500 | 500 to 5000
O[C@@H]1Cc2ccccc2[C@@H]1Nc1cccc(-c2c[nH]c3ncc(Cl)cc23)n1 [Compound 137] |  | < 500 | < 500 | 500 to 5000
CC(=O)N1[C@H](C)CN(c2cccc(-c3c[nH]c4ncc(OCc5ccccc5)cc34)n2)C[C@@H]1C [Compound 193] |  | < 500 | < 500 | < 500
CC(=O)N1[C@H](C)CN(c2cccc(-c3c[nH]c4ncc(C(=O)NCCN5CCOCC5)cc34)n2)C[C@@H]1C [Compound 108] |  | < 500 | < 500 | 500 to 5000
Clc1cnc2[nH]cc(-c3cccc(CNc4ccccc4)c3)c2c1 [Compound 186] | < 500 | < 500 | < 500 | 
CC(=O)N1CCCN(c2cc(C#N)cc(-c3c[nH]c4ncc(Cl)cc34)n2)CC1 [Compound 149] |  | < 500 | < 500 | 500 to 5000
CC(=O)N1CCCN(c2cccc(-c3c[nH]c4ncc(C)cc34)n2)CC1 [Compound 40] |  | < 500 | < 500 | 500 to 5000
Clc1cnc2[nH]cc(-c3cccc(NCc4ccccc4)c3)c2c1 [Compound 145] |  | < 500 | < 500 | 500 to 5000
CC(=O)N1[C@H](C)CN(c2cccc(-c3c[nH]c4ncc(NC(=O)CN5CCOCC5)cc34)n2)C[C@@H]1C [Compound 116] |  | < 500 | < 500 | 500 to 5000
CC(C)[C@H](CO)Nc1cccc(-c2c[nH]c3ncc(Cl)cc23)n1 [Compound 135] |  | < 500 | < 500 | < 500
NC(=O)c1ccc(-c2c[nH]c3ncc(Cl)cc23)cc1 [Compound 105] |  | < 500 | < 500 | 500 to 5000
CCOC(=O)c1cnc2[nH]cc(-c3cccc(N4C[C@@H](C)N(C(C)=O)[C@@H](C)C4)n3)c2c1 [Compound 73] |  | < 500 | < 500 | < 500
CC(=O)N1[C@H](C)CN(c2cccc(-c3c[nH]c4ncc(OCCCN(C)C)cc34)n2)C[C@@H]1C [Compound 194] |  | < 500 | < 500 | 500 to 5000
CC(=O)N1[C@H](C)CN(c2cccc(-c3c[nH]c4ncc(NC(=O)N5CCOCC5)cc34)n2)C[C@@H]1C [Compound 127] |  | < 500 | < 500 | 500 to 5000
CC(=O)N1[C@H](C)CN(c2cccc(-c3c[nH]c4ncc(C(=O)N5CCOCC5)cc34)n2)C[C@@H]1C [Compound 51] |  | 500 to 5000 | 500 to 5000 | 500 to 5000
